Measurements as given in patent US20190125745A1, “TREATMENT AND DIAGNOSIS OF CANCER” (Rgenix, Inc., priority 2014, published 2019).
Structures can show the parent of a compound that is named as a salt.

Key:
[1] = test system: SK-Mel-2 human melanoma cells; assay: Subcutaneous SK-Mel-2 tumor growth in immunocompromised mice; assay type: in vivo; conditions: oral
Experimental: FIG. 4. Therapeutic LXR Activation Inhibits Melanoma Tumor Growth. […] Representative tumor images shown correspond to tumors extracted at the final day (d12). n=10-18 (A), 8-10 (B). (C-E) Primary tumor growth by 1×10^6 MeWo (C), […] SK-Mel-334.2 (D), and 2×10^6 SK-Mel-2 (E) human melanoma cells subcutaneously injected into immunocompromised mice. […] Tumor images shown correspond to last day of measurements. n=6-34 (C), 8 (D), 5 (E). (F) 5×10^4 B16F10 cells were injected subcutaneously into C57BL/6-WT mice. Upon tumor growth to 150 mm^3, mice were fed continuously with a control chow or a chow containing GW3965 (150 mg/kg), and tumor growth was measured daily. n=6-13. […] Tumor volume was calculated as (small diameter)^2×(large diameter)/2. […] Scale bars, 5 mm (A-D), 50 μm (J, K), 25 μm (L).

ApoE promoter = ApoE promoter activity assay (luciferase, ME.1/ME.2); assay type: cell-based, human; conditions: 1 μM
Excerpt: FIG. 11. LXRβ Activation Suppresses Melanoma Invasion and Endothelial Recruitment by Transcriptionally Enhancing Melanoma-Cell ApoE Expression. […] Scale bar, 50 μm.
The ApoE promoter, consisting of a sequence spanning 980 base pairs upstream and 93 base pairs downstream of the ApoEgene, was cloned into a pGL3-Basic vector (E1751, Promega Corporation, Madison, Wis.) upstream of the firefly luciferase gene using NheI and SacI restriction enzymes. Then, multi-enhancer elements 1 (ME.1) and 2 (ME.2) were cloned directly upstream of the ApoE promoter using MluI and […] restriction enzymes. To assess ApoE promoter- and ME.1/ME.2-driven transcriptional activation by LXR agonists, 5×10^4 MeWo cells were seeded into a 24-well plate. […] To assess transcriptional activation by LXRα or LXRβ, 5×10^4 MeWo cells expressing a control shRNA or shRNA targeting LXRα or LXRβ were seeded into a 24-well plate. […] After 24 hours, cells were lysed, and cell lysate was analyzed for firefly and renilla luciferase activity using the Dual Luciferase Assay System (E1960, Promega) and a Bio-Tek Synergy NEO Microplate Reader. Firefly luciferase signal was normalized to renilla luciferase signal and all data are expressed relative to the luciferase activity ratio measured in the DMSO-treated control cells.

[2] = test system: MeWo human melanoma cells; assay: Tail-vein lung metastatic colonization by MeWo cells in NOD Scid mice; assay type: in vivo; conditions: MeWo cells pre-treated 1 μM, 48 hours
Experimental: FIG. 6. LXR Agonism Suppresses Melanoma Metastasis to the Lung and Brain. (A) MeWo cells were pre-treated with DMSO or GW3965 (1 μM) for 48 hours and 4×10^4 cells were intravenously injected via the tail-vein into NOD Scid mice. Lung colonization was monitored by weekly bioluminescence imaging. Representative H&E-stained lungs correspond to the final day (d70) are shown. n=4-5. (B-C) Bioluminescence imaging of lung metastasis by 4×10^4 MeWo cells intravenously injected into NOD Scid mice that were fed a control chow or a chow containing GW3965 (20 mg/kg) or T0901317 (20 mg/kg) starting 10 days prior to cancer cell injection. Representative H&E-stained lungs correspond to final imaging day n=5-6. […] (H) Ex-vivo lung photon flux, determined by bioluminescence imaging, in NOD Scid mice that were administered a control chow or a chow containing GW3965 (100 mg/kg) for 1 month following the excision of size-matched (˜300-mm^3 in volume) subcutaneous melanoma tumors formed by 1×10^6 MeWo melanoma cells. […] Following initiation of metastases, detected by bioluminescence imaging on d42, mice were administered a control diet or a GW3965 diet (100 mg/kg) as indicated, and lung colonization progression was measured weekly. n=6. […]

SMILES: O=C(O)Cc1cccc(OCCCN(Cc2cccc(C(F)(F)F)c2Cl)CC(c2ccccc2)c2ccccc2)c1 [GW3965 108, 3-[3-[N-(2-Chloro-3-trifluoromethylbenzyl)-(2,2-diphenylethyl)amino]propyloxy] phenylacetic acid hydrochloride]
- inhibition of tumor growth, SK-Mel-2 [1]: 49%
- ability to upregulate ApoE transcription and protein expression upon melanoma cell depletion of LXRβ, but not LXRα (ApoE promoter): abrogated
- reduction in metastatic colonization capacity after pre-treatment of cells [2]: more than 50 fold
